Laboratory results taken from patent publication US7135466B2 (Kirin Beer Kabushiki Kaisha, priority 1999, dated 2006).

How the values were obtained:
c-kit = biological target: T1, c-kit (Homo sapiens, UniProt P10721); test: Inhibitory activity against c-kit autophosphorylation (MO7e cells, h-SCF); assay type: cell-based; details: for IC50: MO7e cells, h-SCF stimulation, read-out: c-kit IC50; for inhibition at 1 µM: Mo7e
T1 construct: MO7e (human megakaryocytic leukemia cell line) which had been arrested for 20 hr; endogenous in cells; host or cells: MO7e human megakaryocytic leukemia cell line
Summary of the method: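 Growth-arrested (20 hr) MO7e; cpd in DMSO, 1 hr; h-SCF 50 ng/ml, 5 min; lyse. ELISA: anti-pTyr (PY-20) capture, anti-c-kit 1° Ab, HRP anti-rabbit 2° Ab, A450.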

PDGF-Ra = biological target: T2, PDGF-Ra (Homo sapiens, UniProt P16234); test: Inhibitory activity against PDGF-Ra phosphorylation by PDGF-AA stimulation using G292; assay type: cell-based; details: for IC50: > means inhibition at indicated concentration not more than 50%, < and << not less than 50%, read-out: PDGF (E) IC50; for inhibition at 0.1 µM: G292, figure in parentheses in >100( ), at 100 nM, read-out: PDGF (E) inhibition (%) at 100 nM
T2 construct: host or cells: G-292 human osteosarcoma cells
Summary of the method: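 Human osteosarcoma G-292, 0.1% FBS o/n; cpd (DMSO) 1 h 37 °C; PDGF-AA 50 ng/ml 5 min; lyse 20 min RT; PY-20 capture 4 °C o/n; anti-PDGF-Ra + HRP-GAR; OD450.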

[1] = figure in parentheses in −( ), at 1000 nM

T2 sequence (P16234 24-1089): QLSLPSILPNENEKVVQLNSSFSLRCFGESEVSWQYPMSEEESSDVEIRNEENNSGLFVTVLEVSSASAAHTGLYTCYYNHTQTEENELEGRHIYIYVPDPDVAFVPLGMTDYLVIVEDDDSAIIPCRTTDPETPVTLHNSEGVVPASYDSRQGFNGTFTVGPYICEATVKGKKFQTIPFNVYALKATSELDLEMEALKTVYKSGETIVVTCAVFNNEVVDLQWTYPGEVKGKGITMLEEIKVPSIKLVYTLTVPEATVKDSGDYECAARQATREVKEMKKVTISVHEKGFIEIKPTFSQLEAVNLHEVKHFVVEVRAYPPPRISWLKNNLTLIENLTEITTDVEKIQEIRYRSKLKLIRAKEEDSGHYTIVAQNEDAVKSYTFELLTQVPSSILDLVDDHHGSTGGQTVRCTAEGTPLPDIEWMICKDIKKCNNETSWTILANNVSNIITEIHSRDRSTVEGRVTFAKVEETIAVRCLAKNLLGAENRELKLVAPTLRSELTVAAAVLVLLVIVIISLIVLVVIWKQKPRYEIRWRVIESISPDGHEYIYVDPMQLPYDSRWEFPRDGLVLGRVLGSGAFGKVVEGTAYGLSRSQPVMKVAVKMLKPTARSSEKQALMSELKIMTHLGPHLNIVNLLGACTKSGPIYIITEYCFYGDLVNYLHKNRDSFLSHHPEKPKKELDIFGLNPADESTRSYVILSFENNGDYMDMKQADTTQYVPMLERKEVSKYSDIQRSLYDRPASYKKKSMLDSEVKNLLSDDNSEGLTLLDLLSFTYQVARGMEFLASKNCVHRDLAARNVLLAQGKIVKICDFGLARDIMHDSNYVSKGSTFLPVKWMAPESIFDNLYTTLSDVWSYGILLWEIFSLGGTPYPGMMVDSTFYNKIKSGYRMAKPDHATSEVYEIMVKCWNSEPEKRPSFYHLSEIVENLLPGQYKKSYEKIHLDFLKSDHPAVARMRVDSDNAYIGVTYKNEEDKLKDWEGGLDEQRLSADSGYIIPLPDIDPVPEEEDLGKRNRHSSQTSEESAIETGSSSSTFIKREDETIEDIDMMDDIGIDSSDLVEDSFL
T1 sequence (P10721 26-976): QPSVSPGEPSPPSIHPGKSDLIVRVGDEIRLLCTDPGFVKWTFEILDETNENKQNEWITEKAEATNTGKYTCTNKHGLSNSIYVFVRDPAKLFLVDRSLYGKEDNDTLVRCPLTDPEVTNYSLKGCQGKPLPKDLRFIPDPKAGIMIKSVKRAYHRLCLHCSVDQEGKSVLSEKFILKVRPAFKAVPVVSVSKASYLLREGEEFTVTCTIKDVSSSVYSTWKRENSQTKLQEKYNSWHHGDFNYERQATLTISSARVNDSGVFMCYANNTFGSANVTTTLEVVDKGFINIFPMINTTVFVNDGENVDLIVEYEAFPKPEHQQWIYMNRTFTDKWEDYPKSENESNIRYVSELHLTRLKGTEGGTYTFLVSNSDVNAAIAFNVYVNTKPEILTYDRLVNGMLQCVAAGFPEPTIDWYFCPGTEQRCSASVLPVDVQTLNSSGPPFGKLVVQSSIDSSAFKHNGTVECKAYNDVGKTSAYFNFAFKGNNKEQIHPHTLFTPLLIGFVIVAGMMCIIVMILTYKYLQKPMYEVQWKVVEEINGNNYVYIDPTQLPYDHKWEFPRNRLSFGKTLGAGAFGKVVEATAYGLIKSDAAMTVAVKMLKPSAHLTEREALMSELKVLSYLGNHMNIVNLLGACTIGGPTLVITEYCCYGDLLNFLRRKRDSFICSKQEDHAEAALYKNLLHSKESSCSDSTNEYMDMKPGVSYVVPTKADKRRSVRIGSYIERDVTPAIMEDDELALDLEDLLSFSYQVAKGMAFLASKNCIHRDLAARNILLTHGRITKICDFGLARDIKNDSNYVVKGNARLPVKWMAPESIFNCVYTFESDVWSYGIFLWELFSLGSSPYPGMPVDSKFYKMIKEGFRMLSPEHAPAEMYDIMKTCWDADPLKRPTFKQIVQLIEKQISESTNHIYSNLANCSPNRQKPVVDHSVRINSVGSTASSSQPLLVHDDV

Compound | IC50 (c-kit) [nM] | IC50 (PDGF-Ra) [nM] | inhibition at 1 µM (c-kit; [1]) [%] | inhibition at 0.1 µM (PDGF-Ra) [%] | c-kit inhibition (%) at 1000 nM (c-kit; figure in parentheses in −( ), at 1000 nM, 1 µM)
COc1cc2ncnc(Oc3ccc(NC(=S)NC(=O)C4CC4c4ccccc4)cc3)c2cc1OC (centres unmarked) [Example 1060, N-{4-[(6,7-Dimethoxy-4-quinazolinyl)oxy]phenyl}-N′-[(2-phenylcyclopropyl)carbonyl]thiourea] | – | 39 | 30 | – | –
CCOCCC(=O)NC(=S)Nc1ccc(Oc2ccnc3cc(OC)c(OC)cc23)c(Cl)c1 [Example 1071, N-{3-Chloro-4-[(6,7-dimethoxy-4-quinolyl)oxy]phenyl}-N′-(3-ethoxypropanoyl)thiourea] | – | > 100 | 0 | 17 | –
CCCCC(C)C(=O)NC(=S)Nc1ccc(Oc2ccnc3cc(OC)c(OC)cc23)c(Cl)c1 (centres unmarked) [Example 1077, N-{3-Chloro-4-[(6,7-dimethoxy-4-quinolyl)oxy]phenyl}-N′-(2-methylhexanoyl)thiourea] | 379 | 48 | – | – | –
COc1cc2nccc(Oc3ccc(NC(=S)NC(=O)c4ccccc4C)c(Cl)c3)c2cc1OC [Example 1101, N-{2-Chloro-4-[(6,7-dimethoxy-4-quinolyl)oxy]phenyl}-N′-(2-methylbenzoyl)thiourea] | – | > 100 | 26 | 37 | –
COc1cc2nccc(Oc3ccc(NC(=S)NC(=O)c4ccc(C)cc4)c(Cl)c3)c2cc1OC [Example 1102, N-{2-Chloro-4-[(6,7-dimethoxy-4-quinolyl)oxy]phenyl}-N′-(4-methylbenzoyl)thiourea] | – | > 100 | 11 | 38 | –
COc1cc2nccc(Oc3ccc(NC(=S)NC(=O)c4ccccc4OC)c(Cl)c3)c2cc1OC [Example 1103, N-{2-Chloro-4-[(6,7-dimethoxy-4-quinolyl)oxy]phenyl}-N′-(2-methoxybenzoyl)thiourea] | – | > 100 | 3 | 25 | –
COc1cc2nccc(Oc3ccc(NC(=S)NC(=O)c4ccccc4Cl)c(Cl)c3)c2cc1OC [Example 1104, N-(2-Chlorobenzoyl)-N′-{2-chloro-4-[(6,7-dimethoxy-4-quinolyl)oxy]phenyl}thiourea] | – | 77 | 23 | – | –
COc1cc2nccc(Oc3ccc(NC(=S)NC(=O)Cc4ccccc4)c(C)c3C)c2cc1OC [Example 1105, N-{4-[(6,7-Dimethoxy-4-quinolyl)oxy]-2,3-dimethylphenyl}-N′-(2-phenylacetyl)thiourea] | – | > 100 | – | 31 | −(1) %
COc1cc2nccc(Oc3ccc(NC(=S)NC(=O)CCC4CCCC4)c(Cl)c3)c2cc1OC [Example 1106, N-{2-Chloro-4-[(6,7-dimethoxy-4-quinolyl)oxy]phenyl}-N′-(3-cyclopentylpropanoyl)thiourea] | – | > 100 | 0 | 30 | –
COc1cc2nccc(Oc3ccc(NC(=S)NC(=O)c4ccccc4)c(Cl)c3)c2cc1OC [Example 1107, N-Benzoyl-N′-{2-chloro-4-[(6,7-dimethoxy-4-quinolyl)oxy]phenyl}thiourea] | – | > 100 | 24 | 46 | –
COc1cc2nccc(Oc3ccc(NC(=S)NC(=O)c4cc(Cl)cc(Cl)c4)c(F)c3)c2cc1OC [Example 1122, N-(3,5-Dichlorobenzoyl)-N′-{4-[(6,7-dimethoxy-4-quinolyl)oxy]-2-fluorophenyl}thiourea] | – | > 100 | 26 | 48 | –

Now from value to molecule:

IC50 (c-kit) [nM] | IC50 (PDGF-Ra) [nM] | inhibition at 1 µM (c-kit; [1]) [%] | inhibition at 0.1 µM (PDGF-Ra) [%] | c-kit inhibition (%) at 1000 nM (c-kit; figure in parentheses in −( ), at 1000 nM, 1 µM) | Compound
449 | 27 | – | – | – | COc1cc2nccc(Oc3ccc(NC(=S)NC(=O)N(C(C)C)C(C)C)cc3)c2cc1OC [Example 1043, N-{4-[(6,7-Dimethoxy-4-quinolyl)oxy]phenyl}-{[(diisopropylamino)carbonyl]amino}methanethioamide]
136 | < 10 | – | – | – | COc1cc2nccc(Oc3ccc(NC(=S)NC(=O)N4CCCC4)cc3)c2cc1OC [Example 1044, N-{4-[(6,7-Dimethoxy-4-quinolyl)oxy]phenyl}-N′-tetrahydro-1H-1-pyrrolylcarbonylthiourea]
193 | 17 | – | – | – | COc1cc2nccc(Oc3ccc(NC(=S)NC(=O)N4CCOCC4)cc3)c2cc1OC [Example 1045, N-{4-[(6,7-Dimethoxy-4-quinolyl)oxy]phenyl}-N′-morpholinocarbonylthiourea]
202 | 38 | – | – | – | COc1cc2nccc(Oc3ccc(NC(=S)NC(=O)N(C)c4ccccc4)cc3)c2cc1OC [Example 1046, N-{4-[(6,7-Dimethoxy-4-quinolyl)oxy]phenyl}-{[(methylanilino)carbonyl]amino}methanethioamide]
250 | < 10 | – | – | – | CCN(CC)C(=O)NC(=S)Nc1ccc(Oc2ccnc3cc(OC)c(OC)cc23)c(Cl)c1 [Example 1048, N-{3-Chloro-4-[(6,7-dimethoxy-4-quinolyl)oxy]phenyl}-{[(diethylamino)carbonyl]amino}methanethioamide]
579 | 23 | – | – | – | COc1cc2nccc(Oc3ccc(NC(=S)NC(=O)N(C(C)C)C(C)C)cc3Cl)c2cc1OC [Example 1050, N-{3-Chloro-4-[(6,7-dimethoxy-4-quinolyl)oxy]phenyl}-{[(diisopropylamino)carbonyl]amino}methanethioamide]
418 | 14 | – | – | – | COc1cc2nccc(Oc3ccc(NC(=S)NC(=O)N4CCCC4)cc3Cl)c2cc1OC [Example 1051, N-{3-Chloro-4-[(6,7-dimethoxy-4-quinolyl)oxy]phenyl}-N′-tetrahydro-1H-1-pyrrolylcarbonylthiourea]
408 | 21 | – | – | – | COc1cc2nccc(Oc3ccc(NC(=S)NC(=O)N4CCOCC4)cc3Cl)c2cc1OC [Example 1052, N-{3-Chloro-4-[(6,7-dimethoxy-4-quinolyl)oxy]phenyl}-N′-morpholinocarbonylthiourea]
– | 27 | 19 | – | – | COc1cc2nccc(Oc3ccc(NC(=S)NC(=O)N4c5ccccc5CCc5ccccc54)cc3Cl)c2cc1OC [Example 1054, N-{3-Chloro-4-[(6,7-dimethoxy-4-quinolyl)oxy]phenyl}-N′-[10,11-dihydro-5H-dibenzo(b,f)azepin-5-ylcarbonyl]thiourea]
312 | 16 | – | – | – | COc1cc2nccc(Oc3ccc(NC(=S)NC(=O)C4CC4c4ccccc4)cc3)c2cc1OC (centres unmarked) [Example 1055, N-{4-[(6,7-Dimethoxy-4-quinolyl)oxy]phenyl}-N′-[(2-phenylcyclopropyl)carbonyl]thiourea]
– | 8 | 21 | – | – | COc1cc2nccc(Oc3ccc(NC(=S)NC(=O)C4CC4)cc3Cl)c2cc1OC [Example 1058, N-{3-Chloro-4-[(6,7-dimethoxy-4-quinolyl)oxy]phenyl}-N′-cyclopropylcarbonylthiourea]
566 | 19 | – | – | – | CCOCCC(=O)NC(=S)Nc1ccc(Oc2ccnc3cc(OC)c(OC)cc23)cc1 [Example 1065, N-{4-[(6,7-Dimethoxy-4-quinolyl)oxy]phenyl}-N′-(3-ethoxypropanoyl)thiourea]
289 | < 10 | – | – | – | CCCCC(C)C(=O)NC(=S)Nc1ccc(Oc2ccnc3cc(OC)c(OC)cc23)cc1 (centres unmarked) [Example 1074, N-{4-[(6,7-Dimethoxy-4-quinolyl)oxy]phenyl}-N′-(2-methylhexanoyl)thiourea]
